This is an account of results in US12590062B2, “PD-1/PD-L1 inhibitors” (Gilead Sciences, Inc., priority 2017, dated 2026).

Each structure is given as a SMILES string. pEC50, pIC50: −log10 of the molar value.

One may read the pEC50 as the EC50 on a negative log10 scale, so that one unit is a factor of ten. The pIC50 is −log10 of the IC50, conventionally taken in molar units. As usually defined, the AC50 is the midpoint of the concentration-response curve, whichever way the signal moves.

One test concerns the target T1, PD-1/PD-L1 interaction (Homo sapiens, UniProt Q9NZQ7).
T1 construct: expressed in transfected cells; host or cells: CHO cells (aAPC-PD-L1) co-cultured with Jurkat cells overexpressing PD-1 and an NFAT-luciferase reporter
In words: PD-1/PD-L1 NFAT reporter co-culture assay. The test is classed as cell-based. As to conditions: Jurkat PD-1 NFAT-luciferase cells co-cultured with aAPC-PD-L1 CHO cells, 6 hrs at 37° C.; read-out: EC50 NFAT Luciferase. In outline:
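CHO aAPC-PD-L1 seeded overnight; PD-1/NFAT-luc Jurkat + cpd in RPMI 1640, 2% FBS added at once; 6 h, 37 °C; ONE-Glo luminescence; EC50, 4-parameter fit.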

The target in test [1] is T2, interaction between the recombinant extracellular domain (ECD) of PD-1 and native cell-bound PD-L1 (Homo sapiens, UniProt Q9NZQ7).
T2 construct: expressed in transfected cells
In words: CHO/PD-L1 cell capture assay. Format: cell-based. As to conditions: CHO cells overexpressing PD-L1, pre-incubated 1 hr with compound, captured on biotinylated Fc-PD-1 coated plates, 75 min at room temperature. In outline:
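CHO cells stably overexpressing PD-L1 were pre-incubated 1 hr with compound, then captured 75 min at room temperature on biotinylated Fc-PD-1 ECD bound to streptavidin plates. After glutaraldehyde/Draq5 fixation-staining, captured cells were counted by high-content microscopy; EC50 from four-parameter dose-response fits.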

For another test, the target named is PD-1/PD-L1 (Homo sapiens, UniProt Q9NZQ7). In words: PD-1/PD-L1 biochemical protein-protein interaction assay (ALPHA). The test is classed as binding. Particulars: 0.3 nM His tagged PD-L1, 2.5 nM biotinylated Fc-PD-1, 60 minutes at 25° C., read-out: IC50 PD-L1-PD-1 Alpha IC50-mono PD-L1-fcP-D1. The essentials:
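Final concentrations 0.3 nM His-tagged PD-L1 and 2.5 nM biotinylated Fc-PD-1 (extracellular domains) were reacted with compound for 60 min at 25° C in pH 7.4 Hepes/NaCl/EDTA/Tween/BSA buffer. Binding was then detected by ALPHA beads, and IC50 values were taken from four-parameter curve fitting.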

A further test concerns the target T3, PD-L1 (Homo sapiens, UniProt Q9NZQ7).
T3 construct: determine if they can specifically dimerize the extracellular domains of PD-L1
In words: PD-L1/PD-L1 dimerization biochemical protein-protein interaction assay (ALPHA). Format: binding. Particulars: compound-induced PD-L1 dimerization, head prints '1 nM' (0.5 nM His-tagged PD-L1 and 0.5 nM FLAG-tagged PD-L1), read-out: AC50 PDL1 Dimer Alpha 1 nM. The essentials:
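ALPHA proximity assay of compound-induced dimerization of 0.5 nM His-tagged and 0.5 nM FLAG-tagged PD-L1 extracellular domains in Hepes pH 7.4 buffer, 2 h at 25 °C. Anti-His acceptor then anti-FLAG donor beads, 60 min each; AC50 from four-parameter fit.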

T3 sequence (Q9NZQ7 19-238 limits assumed): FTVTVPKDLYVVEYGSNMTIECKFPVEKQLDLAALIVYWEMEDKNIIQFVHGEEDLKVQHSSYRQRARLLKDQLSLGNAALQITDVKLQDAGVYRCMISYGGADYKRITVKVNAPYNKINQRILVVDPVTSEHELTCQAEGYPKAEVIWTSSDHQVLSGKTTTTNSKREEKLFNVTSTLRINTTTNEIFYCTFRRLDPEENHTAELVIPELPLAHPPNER
T3 sequence (Q9NZQ7 19-238 limits assumed): as above
PD-1/PD-L1, sequence (Q9NZQ7 19-238 limits assumed): as above
T2 sequence (Q9NZQ7 19-290): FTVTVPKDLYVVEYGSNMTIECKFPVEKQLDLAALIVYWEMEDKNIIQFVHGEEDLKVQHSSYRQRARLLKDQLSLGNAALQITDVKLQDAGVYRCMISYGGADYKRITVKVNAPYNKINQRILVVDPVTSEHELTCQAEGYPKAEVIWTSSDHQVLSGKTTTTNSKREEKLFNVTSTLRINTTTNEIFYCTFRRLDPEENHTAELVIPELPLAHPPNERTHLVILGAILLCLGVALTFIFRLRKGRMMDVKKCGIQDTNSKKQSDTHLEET
T1 sequence (Q9NZQ7 19-290): as above

On to `N#Cc1cncc(COc2nc(O[C@H]3CCc4c(-c5cccc6c5CC[C@@H]6Oc5nc(OCc6cncc(C#N)c6)c(CNC[C@@H](O)CC(=O)O)cc5Br)cccc43)c(Br)cc2CNC[C@@H](O)CC(=O)O)c1` [Example 4, (3S,3′S)-4,4′-((((((1S,1′S)-2,2′,3,3′-tetrahydro-1H,1′H-[4,4′-biindene]-1,1′-diyl)bis(oxy))bis(5-bromo-2-((5-cyanopyridin-3-yl)methoxy)pyridine-6,3-diyl))bis(methylene))bis(azanediyl))bis(3-hydroxybutanoic acid)], for which the figures for the pEC50 (on PD-1/PD-L1 interaction; in test [1]) were 7.77 and 7.81, respectively. Besides, the pIC50 on PD-1/PD-L1 is 10.00. Besides, the AC50 on PD-L1 worked out at 67.2 nM.

As to `COc1nc(O[C@H]2CCc3c(-c4cccc5c4CC[C@@H]5Oc4nc(OC)c(CNC[C@@H](O)CC(=O)O)cc4Cl)cccc32)c(Cl)cc1CNC[C@@H](O)CC(=O)O` [Example 6, (3S,3′S)-4,4′-((((((1S,1′S)-2,2′,3,3′-tetrahydro-1H,1′H-[4,4′-biindene]-1,1′-diyl)bis(oxy))bis(5-chloro-2-methoxypyridine-6,3-diyl))bis(methylene))bis(azanediyl))bis(3-hydroxybutanoic acid)], the results for the pEC50 (at PD-1/PD-L1 interaction; in test [1]) were 6.83 and 7.20, respectively. Besides, the pIC50 on PD-1/PD-L1 is 10.00. In addition, at PD-L1, the AC50 turned out to be 90.9 nM.

In the case of `COc1nc(O[C@H]2CCc3c(-c4cccc5c4CC[C@@H]5Oc4nc(OC)c(CNC[C@@H](O)CC(=O)O)cc4Br)cccc32)c(Br)cc1CNC[C@@H](O)CC(=O)O` [Example 7, (3S,3′S)-4,4′-((((((1S,1′S)-2,2′,3,3′-tetrahydro-1H,1′H-[4,4′-biindene]-1,1′-diyl)bis(oxy))bis(5-bromo-2-methoxypyridine-6,3-diyl))bis(methylene))bis(azanediyl))bis(3-hydroxybutanoic acid)], the pEC50 at PD-1/PD-L1 interaction was 7.05; in test [1] it was 7.25. Moreover, at PD-1/PD-L1, the pIC50 was 10.00. Further, on PD-L1, the AC50 stood at 140 nM.

Turning to `Cc1c(COc2cc(OCc3cncc(C#N)c3)c(CNC[C@@H](O)CC(=O)O)cc2Cl)cccc1-c1cccc(-c2ccc(OCCNC[C@@H](O)CC(=O)O)cc2)c1C` [Example 16, (S)-4-((4-((4″-(2-(((S)-3-carboxy-2-hydroxypropyl)amino)ethoxy)-2,2′-dimethyl-[1,1′:3′,1″-terphenyl]-3-yl)methoxy)-5-chloro-2-((5-cyanopyridin-3-yl)methoxy)benzyl)amino)-3-hydroxybutanoic acid], the pEC50 was 7.06 on PD-1/PD-L1 interaction and 8.22 in test [1]. Also, at PD-1/PD-L1, the pIC50 was 10.00. For the same compound, on PD-L1, the AC50 was 100 nM.

With `Cc1c(COc2nc(OCCc3cncnc3)c(CNC[C@@H](O)CC(=O)O)cc2Br)cccc1-c1cccc(COc2nc(OCCc3cncnc3)c(CNC[C@@H](O)CC(=O)O)cc2Br)c1C` [Example 127, (3S,3′S)-4,4′-((((((2,2′-dimethyl-[1,1′-biphenyl]-3,3′-diyl)bis(methylene))bis(oxy))bis(5-bromo-2-(2-(pyrimidin-5-yl)ethoxy)pyridine-6,3-diyl))bis(methylene))bis(azanediyl))bis(3-hydroxybutanoic acid)], the pEC50 at PD-1/PD-L1 interaction is 6.71; in test [1] it was 7.16. On PD-1/PD-L1, the pIC50 is 9.70. Besides, the AC50 on PD-L1 came out at 166 nM.

With `Cc1c(COc2nc(OCCC(N)=O)c(CNCC(=O)O)cc2Cl)cccc1-c1cccc(COc2nc(OCCC(N)=O)c(CNCC(=O)O)cc2Cl)c1C` [Example 146, 2,2′-((((((2,2′-dimethyl-[1,1′-biphenyl]-3,3′-diyl)bis(methylene))bis(oxy))bis(2-(3-amino-3-oxopropoxy)-5-chloropyridine-6,3-diyl))bis(methylene))bis(azanediyl))diacetic acid], the results for the pEC50 (on PD-1/PD-L1 interaction; in test [1]) were 5.64 and 6.73, respectively. In addition, on PD-L1, the AC50 was determined as 334 nM.

For `COc1nc(OCc2cccc(-c3cccc(COc4nc(OC)c(CNCCC(=O)O)cc4Cl)c3C)c2C)c(Cl)cc1CNCCC(=O)O` [Example 172, 3,3′-((((((2,2′-dimethyl-[1,1′-biphenyl]-3,3′-diyl)bis(methylene))bis(oxy))bis(5-chloro-2-methoxypyridine-6,3-diyl))bis(methylene))bis(azanediyl))dipropionic acid], the pEC50 at PD-1/PD-L1 interaction is 6.86; in test [1], 7.30. Further, the AC50 on PD-L1 is not below 10000 nM.

Consider `COc1nc(OCc2cccc(-c3cccc(COc4nc(OC)c(CNCCCC(=O)O)cc4Cl)c3C)c2C)c(Cl)cc1CNCCCC(=O)O` [Example 183, 4,4′-((((((2,2′-dimethyl-[1,1′-biphenyl]-3,3′-diyl)bis(methylene))bis(oxy))bis(5-chloro-2-methoxypyridine-6,3-diyl))bis(methylene))bis(azanediyl))dibutyric acid], for which the results for the pEC50 (at PD-1/PD-L1 interaction; in test [1]) were 6.85 and 7.16, respectively. For the same compound, the AC50 on PD-L1 was 260 nM.

In the case of `COc1nc(OCc2cccc(-c3cccc(COc4nc(OC)c(CNC[C@H](O)CC(=O)O)cc4Br)c3Cl)c2Cl)ccc1CNC[C@H](O)CC(=O)O` [Example 192, (R)-4-(((6-((3′-(((3-Bromo-5-((((R)-3-carboxy-2-hydroxypropyl)amino)methyl)-6-methoxypyridin-2-yl)oxy)methyl)-2,2′-dichloro-[1,1′-biphenyl]-3-yl)methoxy)-2-methoxypyridin-3-yl)methyl)amino)-3-hydroxybutanoic acid], the values for the pEC50 (at PD-1/PD-L1 interaction; in test [1]) were 6.71 and 7.51, respectively. For the same compound, the AC50 on PD-L1 turned out to be 267 nM.

On to `Cc1c(COc2cc(OCc3cncc(C#N)c3)c(CNC[C@@H](O)CC(=O)O)cc2Cl)cccc1-c1cccc(-c2ccc3c(cnn3CCNC[C@@H](O)CC(=O)O)c2)c1C` [Example 209, (S)-4-((4-((3′-(1-(2-(((S)-3-carboxy-2-hydroxypropyl)amino)ethyl)-1H-indazol-5-yl)-2,2′-dimethyl-[1,1′-biphenyl]-3-yl)methoxy)-5-chloro-2-((5-cyanopyridin-3-yl)methoxy)benzyl)amino)-3-hydroxybutanoic acid], for which the pEC50 is 7.14 on PD-1/PD-L1 interaction and 7.88 in test [1]. For the same compound, the half-maximal activity concentration (AC50) on PD-L1 amounted to 70.5 nM.

In the case of `Cc1c(COc2cc(OCc3cncc(C#N)c3)c(CNC[C@@H](O)CC(=O)O)cc2Cl)cccc1-c1cccc(-c2ccc3sc(CNC[C@@H](O)CC(=O)O)cc3c2)c1C` [Example 211], the results for the pEC50 (at PD-1/PD-L1 interaction; in test [1]) were 6.52 and 7.34, respectively. Besides, the AC50 at PD-L1 came out at 81.2 nM.

Consider `COc1nc(OCc2cccc(-c3cccc(COc4nc(OC)c(CN5CCC[C@H]5C(=O)O)cc4Cl)c3C)c2C)c(Cl)cc1CN1CCC[C@H]1C(=O)O` [Example 232, (2′S)-(((((2,2′-dimethyl-[1,1′-biphenyl]-3,3′-diyl)bis(methylene))bis(oxy))bis(5-chloro-2-methoxypyridine-6,3-diyl))bis(methylene))di-L-proline], for which the pEC50 at PD-1/PD-L1 interaction is 6.48; in test [1] it was 6.85. In addition, the AC50 at PD-L1 is 314 nM.

Take `Cc1c(COc2cc(OCc3cncc(C#N)c3)c(CNC[C@@H](O)CC(=O)O)cc2Cl)cccc1-c1cccc(OCc2ccc(CNC[C@@H](O)CC(=O)O)cc2)c1C` [Example 279, (S)-4-((4-(((3′-((4-((((S)-3-carboxy-2-hydroxypropyl)amino)methyl)-2-chloro-5-((5-cyanopyridin-3-yl)methoxy)phenoxy)methyl)-2,2′-dimethyl-[1,1′-biphenyl]-3-yl)oxy)methyl)benzyl)amino)-3-hydroxybutanoic acid]: the pEC50 at PD-1/PD-L1 interaction was 6.59; in test [1], 7.56. Also, on PD-L1, the AC50 was 109 nM.

With `Cc1c(COc2cc(OCc3cncc(C#N)c3)c(CNC(CO)(CO)CO)cc2Cl)cccc1-c1cccc(COc2cc(OCc3cncc(C#N)c3)c(CNC(CO)(CO)CO)cc2Cl)c1C` [Example 282, 5,5′-((((((2,2′-dimethyl-[1,1′-biphenyl]-3,3′-diyl)bis(methylene))bis(oxy))bis(4-chloro-6-(((1,3-dihydroxy-2-(hydroxymethyl)propan-2-yl)amino)methyl)-3,1-phenylene))bis(oxy))bis(methylene))dinicotinonitrile], the pEC50 on PD-1/PD-L1 interaction is 6.33; in test [1], 6.60. The concentration at half-maximal activity (AC50) on PD-L1 was found to be 327 nM.
